The values below come from PubChem BioAssay AID248 (DTP/NCI, 2004).

The assay deals with L1210 leukemia ip in BDF1 mice, survival T/C. Nature of the assay: NCI In Vivo Anticancer Drug Screen. Data for tumor model L1210 Leukemia (intraperitoneal) in B6D2F1 (BDF1) mice. The conditions noted are these: endpoint: mean survival time, higher = longer survival. Put shortly:
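Antitumor effect is assessed in tumor-bearing animals. Survival in the compound arm is compared with a vehicle-dosed control arm and expressed as their quotient.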

Where [1] appears, read: dose: 50.0 mg/kg/injection, schedule: Q01DX009 (ip), vehicle: Klucel (hydroxypropylcellulose) (HPC).
The mark [2] stands for this setting: dose: 50.0 mg/kg/injection, schedule: Q04DX003 (ip), vehicle: Klucel (hydroxypropylcellulose) (HPC).
Where [3] appears, read: dose: 100.0 mg/kg/injection, schedule: Q01DX001 (ip), vehicle: Klucel (hydroxypropylcellulose) (HPC).
The mark [4] stands for this setting: dose: 100.0 mg/kg/injection, schedule: Q01DX009 (ip), vehicle: Klucel (hydroxypropylcellulose) (HPC).
Where [5] appears, read: dose: 100.0 mg/kg/injection, schedule: Q04DX003 (ip), vehicle: Klucel (hydroxypropylcellulose) (HPC).
[6] abbreviates: dose: 200.0 mg/kg/injection, schedule: Q01DX001 (ip), vehicle: Klucel (hydroxypropylcellulose) (HPC).
Setting [7] is: dose: 200.0 mg/kg/injection, schedule: Q04DX003 (ip), vehicle: Klucel (hydroxypropylcellulose) (HPC).
Where [8] appears, read: dose: 200.0 mg/kg/injection, schedule: Q01DX009 (ip), vehicle: Klucel (hydroxypropylcellulose) (HPC).
Where [9] appears, read: dose: 100.0 mg/kg/injection, schedule: Q01DX009 (ip), vehicle: saline.
Setting [10] is: dose: 200.0 mg/kg/injection, schedule: Q01DX009 (ip), vehicle: saline.

“And” between values parts separate entries of the source, which are not always exact repeats. Identical values can stand only once. Inconclusive results and toxic doses are left out.

For `Clc1nnc(Cl)c(Cl)c1Cl`, the T/C is, setting by setting: (dose: 0.31 mg/kg/injection, schedule: Q01DX009 (ip), vehicle: saline) 101 % of control; (dose: 0.5 mg/kg/injection, schedule: Q01DX Z (ip), vehicle: carboxymethylcellulose (CMC)) 98 % of control; (dose: 0.62 mg/kg/injection, schedule: Q01DX009 (ip), vehicle: saline) 98 % of control; (dose: 0.62 mg/kg/injection, schedule: Q04DX003 (ip), vehicle: acetone) 96 % of control; (dose: 0.75 mg/kg/injection, schedule: Q01DX009 (ip), vehicle: saline) 104 % of control; (dose: 1.0 mg/kg/injection, schedule: Q01DX Z (ip), vehicle: carboxymethylcellulose (CMC)) 96 % of control. For the same compound, the T/C is 96 % of control (dose: 1.25 mg/kg/injection, schedule: Q01DX009 (ip), vehicle: saline); 89 % of control (dose: 1.25 mg/kg/injection, schedule: Q04DX003 (ip), vehicle: acetone); 97 % of control (dose: 1.5 mg/kg/injection, schedule: Q01DX009 (ip), vehicle: saline); 102 % of control (dose: 1.8 mg/kg/injection, schedule: Q01DX009 (ip), vehicle: saline with Tween-80); 93 % of control (dose: 2.0 mg/kg/injection, schedule: Q01DX Z (ip), vehicle: carboxymethylcellulose (CMC)); 97 % of control (dose: 2.5 mg/kg/injection, schedule: Q01DX001 (ip), vehicle: saline). The T/C reads like this: (dose: 2.8 mg/kg/injection, schedule: Q01DX009 (ip), vehicle: saline with Tween-80) 108 % of control; (dose: 3.0 mg/kg/injection, schedule: Q01DX009 (ip), vehicle: saline) 97 % of control; (dose: 4.0 mg/kg/injection, schedule: Q01DX015 (ip), vehicle: carboxymethylcellulose (CMC)) 96 % of control; (dose: 4.0 mg/kg/injection, schedule: Q01DX Z (ip), vehicle: carboxymethylcellulose (CMC)) 93 % of control; (dose: 4.2 mg/kg/injection, schedule: Q01DX009 (ip), vehicle: saline with Tween-80) 94 % of control; (dose: 8.0 mg/kg/injection, schedule: Q01DX015 (ip), vehicle: carboxymethylcellulose (CMC)) 93 % of control.

As to `N#CC12CCCCC(=O)N1C=Cc1ccccc12` (configuration not stated), the T/C (dose: 100.0 mg/kg/injection, schedule: Q01DX001 (ip), vehicle: saline) is 96 % of control; the T/C (dose: 200.0 mg/kg/injection, schedule: Q01DX001 (ip), vehicle: saline) was 96 % of control; the T/C (dose: 400.0 mg/kg/injection, schedule: Q01DX001 (ip), vehicle: saline) was 93 % of control.

For the compound `COc1ccc2c(C(=O)N(CCCl)CCCl)cc3cc(OC)c(OC)cc3c2c1`, the T/C is, setting by setting: (dose: 25.0 mg/kg/injection, schedule: Q04DX003 (ip), vehicle: saline) 116 % of control; (dose: 50.0 mg/kg/injection, schedule: Q04DX003 (ip), vehicle: saline) 102 % of control.

Regarding `CC(C)=C1C2CCC1C1C(=O)OC(=O)C21` (configuration not stated), the T/C was 95 % of control under setting [1]; 102 % of control under setting [2]; 98 % of control under setting [3]; 88 % of control under setting [4]; 102 % of control under setting [5]; 105 % of control under setting [6]. For the same compound, the T/C under setting [7] is 100 % of control.

Take `CCOC(=O)C(CCC(=O)O)NC(=O)OCc1ccccc1` (configuration not stated): the T/C runs as follows: under setting [2], 94 % of control; under setting [4], 101 % of control; under setting [5], 94 % of control and 100 % of control; under setting [8], 106 % of control; under setting [7], 93 % of control.

On to `CC(=O)O/N=C1\C(C)=[N+]([O-])[N+]([O-])=C1c1ccccc1`, for which the T/C was 98 % of control under setting [1], 87 % of control under setting [4] and 90 % of control under setting [8].

Turning to `COC1OCC(O)C(NC(=O)N(C)N=O)C1O` (configuration not stated), the T/C is, setting by setting: (dose: 6.25 mg/kg/injection, schedule: Q01DX009 (ip), vehicle: saline) 117 % of control; (dose: 12.5 mg/kg/injection, schedule: Q01DX009 (ip), vehicle: saline) 118 % of control; (dose: 16.5 mg/kg/injection, schedule: Q04DX003 (ip), vehicle: saline) 108 % of control; (dose: 25.0 mg/kg/injection, schedule: Q01DX009 (ip), vehicle: saline) 150 % of control and 154 % of control; (dose: 27.3 mg/kg/injection, schedule: Q04DX003 (ip), vehicle: saline) 112 % of control; (dose: 33.0 mg/kg/injection, schedule: Q04DX003 (ip), vehicle: saline) 118 % of control. The T/C (dose: 37.5 mg/kg/injection, schedule: Q01DX009 (ip), vehicle: citric acid) was 152 % of control; the T/C (dose: 75.0 mg/kg/injection, schedule: Q01DX009 (ip), vehicle: citric acid) is 185 % of control; the T/C under setting [9] is 177 % of control and 224 % of control; the T/C (dose: 150.0 mg/kg/injection, schedule: Q04DX003 (ip), vehicle: saline) is 167 % of control; the T/C under setting [10] is 92 % of control.

As for `Clc1cc(Cl)c(I)c(Cl)c1`, the T/C by setting is: under setting [4], 95 % of control; under setting [5], 93 % of control; under setting [8], 95 % of control; under setting [7], 95 % of control; (dose: 400.0 mg/kg/injection, schedule: Q04DX003 (ip), vehicle: Klucel (hydroxypropylcellulose) (HPC)) 92 % of control.

Turning to `CCOC(=O)C1(C(C)C)OC2(O)C3CCCN3C(=O)C(C(C)C)N2C1=O` (configuration not stated), the T/C (dose: 3.12 mg/kg/injection, schedule: Q03HX024 (ip), vehicle: Klucel (hydroxypropylcellulose) (HPC)) is 98 % of control; the T/C (dose: 6.25 mg/kg/injection, schedule: Q03HX024 (ip), vehicle: Klucel (hydroxypropylcellulose) (HPC)) is 97 % of control; the T/C (dose: 8.25 mg/kg/injection, schedule: Q01DX009 (ip), vehicle: Klucel (hydroxypropylcellulose) (HPC)) is 97 % of control; the T/C (dose: 12.5 mg/kg/injection, schedule: Q01DX009 (ip), vehicle: Klucel (hydroxypropylcellulose) (HPC)) is 98 % of control; the T/C (dose: 12.5 mg/kg/injection, schedule: Q03HX024 (ip), vehicle: Klucel (hydroxypropylcellulose) (HPC)) is 98 % of control; the T/C (dose: 16.5 mg/kg/injection, schedule: Q01DX009 (ip), vehicle: Klucel (hydroxypropylcellulose) (HPC)) is 99 % of control. In addition, the T/C is, setting by setting: (dose: 25.0 mg/kg/injection, schedule: Q01DX001 (ip), vehicle: Klucel (hydroxypropylcellulose) (HPC)) 95 % of control; (dose: 25.0 mg/kg/injection, schedule: Q01DX009 (ip), vehicle: Klucel (hydroxypropylcellulose) (HPC)) 109 % of control; (dose: 25.0 mg/kg/injection, schedule: Q03HX024 (ip), vehicle: Klucel (hydroxypropylcellulose) (HPC)) 100 % of control; (dose: 25.0 mg/kg/injection, schedule: Q04DX003 (ip), vehicle: alcohol) 97 % of control; (dose: 33.0 mg/kg/injection, schedule: Q01DX009 (ip), vehicle: Klucel (hydroxypropylcellulose) (HPC)) 100 % of control; (dose: 50.0 mg/kg/injection, schedule: Q01DX001 (ip), vehicle: Klucel (hydroxypropylcellulose) (HPC)) 101 % of control. Further, the T/C is 105 % of control under setting [1]; 93 % of control (dose: 50.0 mg/kg/injection, schedule: Q03HX024 (ip), vehicle: Klucel (hydroxypropylcellulose) (HPC)); 106 % of control (dose: 50.0 mg/kg/injection, schedule: Q04DX003 (ip), vehicle: alcohol); 98 % of control (dose: 66.0 mg/kg/injection, schedule: Q01DX009 (ip), vehicle: Klucel (hydroxypropylcellulose) (HPC)); 95 % of control under setting [3]; 100 % of control under setting [4]. Moreover, the T/C is 96 % of control (dose: 100.0 mg/kg/injection, schedule: Q04DX003 (ip), vehicle: alcohol); 104 % of control under setting [6]; 98 % of control under setting [8]; 98 % of control (dose: 200.0 mg/kg/injection, schedule: Q04DX003 (ip), vehicle: alcohol).

Turning to `Cn1ncc(=O)n(C)c1=O`, the T/C is 97 % of control (dose: 50.0 mg/kg/injection, schedule: Q01DX009 (ip), vehicle: saline); 97 % of control under setting [9]; 93 % of control under setting [10].

For `CC1(C)C2CCC(=O)C1C2` (configuration not stated), the T/C is, setting by setting: (dose: 100.0 mg/kg/injection, schedule: Q04DX003 (ip), vehicle: saline with Tween-80) 101 % of control; (dose: 200.0 mg/kg/injection, schedule: Q04DX003 (ip), vehicle: saline with Tween-80) 96 % of control; (dose: 400.0 mg/kg/injection, schedule: Q04DX003 (ip), vehicle: saline with Tween-80) 96 % of control.
